Where a SMILES comes first, the peptide text is derived from it. The star is where a group is joined. Cbz = O=C(OCc1ccccc1)*
What was measured:
c-Myc [1] = test: c-Myc transcription, turnover and NEDD4 expression in MCF-7 cells; type: cell-based, human
SIRT3 = molecular target: T1, SIRT3 (Homo sapiens, UniProt Q9NTG7); test: HPLC-based sirtuin inhibition assay, SIRT3; type: biochemical; conditions: at 200 µM
T1 sequence (Q9NTG7 1-399): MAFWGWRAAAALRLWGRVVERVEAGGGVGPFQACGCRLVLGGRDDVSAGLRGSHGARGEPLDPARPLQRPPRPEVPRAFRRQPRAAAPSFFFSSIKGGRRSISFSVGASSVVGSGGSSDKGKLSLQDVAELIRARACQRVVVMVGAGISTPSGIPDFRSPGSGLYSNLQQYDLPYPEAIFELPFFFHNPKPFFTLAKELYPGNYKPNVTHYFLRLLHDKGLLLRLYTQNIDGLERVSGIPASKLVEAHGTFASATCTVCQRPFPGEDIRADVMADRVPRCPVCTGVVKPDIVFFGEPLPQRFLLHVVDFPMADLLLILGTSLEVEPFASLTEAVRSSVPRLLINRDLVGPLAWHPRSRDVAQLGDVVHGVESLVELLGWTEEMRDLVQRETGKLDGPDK

[2] = test system: MCF-7, MDA-MB-468 and MDA-MB-231; test: Cell viability assay; type: cell-based, human; conditions: 72 hr, up to 50 µM
MDA-MB-231 cells = test: Cell viability assay; type: cell-based, human; conditions: read-out: IC50 cell viability; 72 hr
MCF-10A and HME1 = test: Cell viability assay; type: cell-based, human; conditions: 72 hr, compared with malignant cells
MCF-7 cells [3] = test: Soft agar colony formation assay; type: cell-based, human; conditions: 25 µM in ethanol
[4] = test system: NCI-60 panel of human cancer cell lines; test: NCI-60 cell line screening; type: cell-based; conditions: single dose of 10 µM, 24 hr
BT-549 = test: NCI-60 cell line screening, BT-549; type: cell-based, human; conditions: 10 µM TM
[5] = test system: MDA-MB-231 human breast cancer xenograft; test: MDA-MB-231 xenograft model in immunocompromised mice; type: in vivo
[6] = Detection of TM in mouse serum, fat and tumor tissues by mass spectrometry; type: in vivo, mice; conditions: IP administration
MMTV-PyMT mammary tumors = test: MMTV-PyMT mammary tumor model; type: in vivo, mice
c-Myc [7] = test: c-Myc protein level in MCF-7 cells; type: cell-based, human; conditions: 25 µM
c-Myc [8] = test: c-Myc protein level in BT-549 cells; type: cell-based, human; conditions: 25 µM
MCF-7 cells [9] = test: Cell cycle distribution and β-galactosidase senescence staining in MCF-7 cells; type: cell-based, human; conditions: 25 µM
[10] = 30 days treatment, compared with vehicle
[11] = 30 days treatment, relative to vehicle

CC(C)C[C@@H](C=O)NC(=O)[C@H](CC(C)C)NC(=O)[C@H](CC(C)C)NC(=O)OCc1ccccc1 [MG132, reference compound] (Cbz-Leu-Leu-Leu-aldehyde)
effect on TM-induced down-regulation of c-Myc (c-Myc [1]; MCF-7 cells, TM 25 µM 4 hr then MG132 10 µM 2 hr): prevented the TM-induced down-regulation of c-Myc

CCCCCCCCCCCCCC(=S)NCCCCC(NC(=O)OCc1ccccc1)C(=O)Nc1ccccc1 (centres unmarked) [TM]
inhibition of SIRT3 (SIRT3): did not inhibit | inhibition of cell viability [2]: greater inhibition of cell viability | IC50 (MDA-MB-231 cells): 34 µM | sensitivity of cell viability to TM (MCF-10A and HME1): much less sensitive | anchorage-independent growth (soft agar colony formation) (MCF-7 cells [3]): significantly inhibited | cell lines inhibited by >50% [4]: 36/56 | viability (BT-549): ~100% | body weight ([5]; 1.5 mg TM daily, 30 days): no significant weight loss | toxicity in mice ([5]; 1.5 mg TM daily, 30 days): did not cause significant toxicity | tumor growth ([5]; 1.5 mg TM in 50 µL DMSO daily, IT or IP, 30 days, versus vehicle): significantly inhibited tumor growth | acetyl-α-tubulin level in xenograft tumors [5, 10]: moderately but statistically significantly increased | Ki-67+ cells in tumors [5, 11]: significant decrease in Ki-67^+ cells | TM content in abdominal fat [6]: significant amount of TM accumulated in abdominal fat | TM content in tumors [6]: reached the tumors | acetyl-α-tubulin level in tumors (MMTV-PyMT mammary tumors; [10]): modest but statistically significant increase | proliferation of tumor cells by Ki-67 staining (MMTV-PyMT mammary tumors; [11]): significant decrease in proliferation of tumor cells | mean latency to tumor onset (MMTV-PyMT mammary tumors; daily IP 1.5 mg TM in 50 µL DMSO, control group 48 days): 54 days | tumor-free survival (MMTV-PyMT mammary tumors; daily IP 1.5 mg TM, compared with vehicle): significantly prolonged | c-Myc protein level (c-Myc [7]): decreased c-Myc protein level in a time-dependent manner | c-Myc protein abundance (c-Myc [8]): did not have a significant effect | cell cycle distribution (MCF-7 cells [9]; 0-72 hr, flow cytometry): pronounced increase in cells arrested in G0/G1 phase | cellular senescence by β-galactosidase staining (MCF-7 cells [9]; 5 days): significant cellular senescence | NEDD4 expression (c-Myc [1]; MCF-7 and K562 cells, 25 µM TM): up-regulated by TM at the transcriptional level | half-life of c-Myc (c-Myc [1]; MCF-7 cells, 25 µM 4 hr then CHX): shortened | c-Myc mRNA level (c-Myc [1]; MCF-7 cells, 25 µM, RT-PCR): not affected
